From the NIST ThermoML archive (doi:10.1021/je4000857)
“And” between values parts separate entries of the source, which are not always exact repeats. Identical values can stand only once. ± gives the expanded uncertainty stated by the source.

Conditions: Liquid

Row | vapor or sublimation pressure (264.05 K) | vapor or sublimation pressure (271.05 K) [kPa] | vapor or sublimation pressure (278.05 K) [kPa] | vapor or sublimation pressure (303.04 K) [kPa] | vapor or sublimation pressure (253.3 K) [kPa] | vapor or sublimation pressure (258.11 K) [kPa] | vapor or sublimation pressure (263.23 K) [kPa] | vapor or sublimation pressure (268.17 K) [kPa] | vapor or sublimation pressure (282.74 K) [kPa] | vapor or sublimation pressure (292.81 K) [kPa] | vapor or sublimation pressure (308.04 K) [kPa] | vapor or sublimation pressure (312.78 K) [kPa] | vapor or sublimation pressure (322.96 K) [kPa] | Structure (SMILES)
1 | 1862 ± 36 kPa | 2275 ± 43 | 2700 ± 51 | 4600 ± 87 |  |  |  |  |  |  |  |  |  | CC [ethane]
2 | 298 ± 4 kPa and 297 ± 4 kPa | 383 ± 4 | 483 ± 5 | 995 ± 10 | 194 ± 3 | 238 ± 3 | 287 ± 3 | 343 ± 4 | 553 ± 6 | 743 ± 7 | 1124 ± 11 | 1256 ± 12 | 1604 ± 16 | FC(F)(F)C(F)(F)C(F)(F)F [octafluoropropane]
